Data reported in US20150352108A1, “AMINO-PYRIMIDINE COMPOUNDS AS INHIBITORS OF TBK1 AND/OR IKK EPSILON” (Alzheimer's Institute of America, priority 2009, published 2015).

Key:
[1] = target: T1, IKKε (Homo sapiens, UniProt Q14164); experiment: In-vitro IKKε kinase assay ([γ33]ATP filter-plate); type: biochemical; settings: text bins; read-out: IC50 for inhibition of the kinase activity of IKKε
T1 construct: His-tag; made in house; host or cells: Sf9 insect cells
T1 sequence (Q14164 1-716): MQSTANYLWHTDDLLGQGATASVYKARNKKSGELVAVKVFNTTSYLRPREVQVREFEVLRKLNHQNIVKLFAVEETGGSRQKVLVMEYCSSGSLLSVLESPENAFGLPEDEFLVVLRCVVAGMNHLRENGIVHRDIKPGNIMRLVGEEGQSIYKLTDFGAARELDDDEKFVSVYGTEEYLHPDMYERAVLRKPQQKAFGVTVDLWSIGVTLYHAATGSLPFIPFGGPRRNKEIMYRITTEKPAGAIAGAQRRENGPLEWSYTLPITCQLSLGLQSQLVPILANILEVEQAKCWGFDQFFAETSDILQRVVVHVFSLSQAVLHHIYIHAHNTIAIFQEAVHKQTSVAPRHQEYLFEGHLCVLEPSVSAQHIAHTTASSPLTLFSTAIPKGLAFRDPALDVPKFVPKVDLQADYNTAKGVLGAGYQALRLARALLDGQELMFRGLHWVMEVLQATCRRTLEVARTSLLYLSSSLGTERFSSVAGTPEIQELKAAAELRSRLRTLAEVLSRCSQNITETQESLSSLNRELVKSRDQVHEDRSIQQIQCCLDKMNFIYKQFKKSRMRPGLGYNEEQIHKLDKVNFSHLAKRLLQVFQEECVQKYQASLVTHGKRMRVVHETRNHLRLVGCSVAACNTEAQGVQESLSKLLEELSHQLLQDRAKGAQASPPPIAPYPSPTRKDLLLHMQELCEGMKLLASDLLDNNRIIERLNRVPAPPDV
Method in brief: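 His-tagged Sf9-expressed kinases at 0.1 or 0.02 μg/ml (TBK1) and 0.1 or 0.015 μg/ml (IKKε) for normal and sensitized formats, with myelin basic protein or casein substrate. ATP was at 2×Km (60 μM TBK1, 32 μM IKKε) plus 0.3 μCi [γ33]ATP. Reactions ran 30-45 min, were captured on P-81 filters, and counts were normalized to DMSO.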

[2] = target: T2, TBK1 (Homo sapiens, UniProt Q9UHD2); experiment: In-vitro TBK1 kinase assay ([γ33]ATP filter-plate); type: biochemical; settings: text bins; read-out: IC50 for inhibition of the kinase activity of TBK1
T2 construct: His-tag; made in house; host or cells: Sf9 insect cells
T2 sequence (Q9UHD2 1-729): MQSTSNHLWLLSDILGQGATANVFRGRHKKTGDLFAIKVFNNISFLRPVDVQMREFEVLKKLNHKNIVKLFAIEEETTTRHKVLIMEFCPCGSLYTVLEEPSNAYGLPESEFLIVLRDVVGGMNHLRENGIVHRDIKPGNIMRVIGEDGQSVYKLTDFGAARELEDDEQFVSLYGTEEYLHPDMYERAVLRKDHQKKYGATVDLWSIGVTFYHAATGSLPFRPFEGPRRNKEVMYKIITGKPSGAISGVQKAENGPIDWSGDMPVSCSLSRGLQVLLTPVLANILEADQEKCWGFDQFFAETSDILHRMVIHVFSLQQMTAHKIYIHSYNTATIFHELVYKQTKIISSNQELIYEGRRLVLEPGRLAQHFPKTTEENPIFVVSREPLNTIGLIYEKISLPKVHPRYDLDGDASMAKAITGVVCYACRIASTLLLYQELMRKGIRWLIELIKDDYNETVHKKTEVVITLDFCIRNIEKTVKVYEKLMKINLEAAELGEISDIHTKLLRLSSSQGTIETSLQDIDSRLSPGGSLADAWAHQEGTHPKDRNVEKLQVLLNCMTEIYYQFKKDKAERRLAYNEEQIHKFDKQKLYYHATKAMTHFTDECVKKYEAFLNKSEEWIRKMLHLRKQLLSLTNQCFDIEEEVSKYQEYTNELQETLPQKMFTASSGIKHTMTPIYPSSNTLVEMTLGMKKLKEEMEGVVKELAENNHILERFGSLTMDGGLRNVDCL
Experimental: IKKε enzyme was produced as a His-tag fusion in Sf9 cells and used at a final concentration of […]. TBK1 enzyme was produced as a His-tag fusion in Sf9 cells and used at a final concentration of 0.1 μg/ml. Kinase reactions were carried out in reaction buffer using myelin basic protein (Millipore, Ballerica, Mass.) or casein (Sigma, St. Louis, Mo.) as substrate at an ATP concentration equal to twice the Km,ATP value for each enzyme, corresponding to 32 μM ATP for IKKε and 60 μM ATP for TBK1, in the presence of 0.3 μCi [γ^33]ATP (PerkinElmer, Waltham, Mass.). Final enzyme concentrations were 0.1 or 0.015 μg/ml (IKKε) and 0.1 or 0.02 μg/ml (TBK1), representing “normal” and “sensitized” assay conditions respectively. Test compounds (or DMSO solvent as a control) were added prior to initiation of the reactions. Reactions were terminated after 30-45 minutes by adding 3% phosphoric acid. Terminated reactions were transferred to P-81 cellulose phosphate filterplates (Whatman, Inc., Piscataway, N.J.) and washed with 1% phosphoric acid on a vacuum apparatus. After air drying, scintillant (PerkinElmer, Waltham, Mass.) was added and the plates were read on a PerkinElmer TopCount NXT instrument. Counts were normalized to DMSO controls after background subtraction.

Compound | IC50 [1] | IC50 [2]
COc1ccc(-c2ccnc(Nc3ccc(OCCN4CCOCC4)c(OC)c3)n2)cc1C#N [Example 273, 2-Methoxy-5-[2-({3-methoxy-4-[2-(morpholin-4-yl)ethoxy]phenyl}amino)pyrimidin-4-yl]benzonitrile] | 5 to 50 nM | 10 to 100 nM
COc1ccc(Nc2nccc(-c3ccc(OC(C)(C)C)c(C#N)c3)n2)cc1OC [Example 169, 2-tert-Butoxy-5-{2-[(3,4-dimethoxyphenyl)amino]pyrimidin-4-yl}benzonitrile] | 5 to 50 nM | 10 to 100 nM
N#Cc1cc(-c2ccnc(Nc3ccc(N4CCOCC4)cc3)n2)ccc1OCc1cccnc1 [Example 168, 5-(2-{[4-(Morpholin-4-yl)phenyl]amino}pyrimidin-4-yl)-2-(pyridin-3-ylmethoxy) benzonitrile] | 5 to 50 nM | < 10 nM
Cc1ccc(-c2ccnc(Nc3ccc(N4CCOCC4)cc3)n2)cc1C#N [Example 269, 2-Methyl-5-(2-{[4-(morpholin-4-yl)phenyl]amino}pyrimidin-4-yl)benzonitrile] | 5 to 50 nM | < 10 nM
COc1cc(-c2ccnc(Nc3ccc(CN4CCN(CCO)CC4)cc3)n2)cc(C#N)c1OC1CCOCC1 [compound 443] | 5 to 50 nM | 10 to 100 nM
COc1cc(Nc2nccc(-c3ccc(OC4CCOCC4)c(C#N)c3)n2)ccc1C(=O)NCc1cccnc1 [Example 275, 4-({4-[3-cyano-4-(tetrahydro-2H-pyran-4-yloxy)phenyl]pyrimidin-2-yl}amino)-2-methoxy-N-(pyridin-3-ylmethyl)benzamide] | < 5 nM | < 10 nM
N#Cc1cc(-c2ccnc(Nc3ccc(N)cc3)n2)ccc1OC1CCOCC1 [Example 184, 5-{2-[(4-Aminophenyl)amino]pyrimidin-4-yl}-2-(tetrahydro-2H-pyran-4-yloxy)benzonitrile] | < 5 nM | < 10 nM
CC(C)Nc1ccc(-c2ccnc(Nc3ccc(N4CCOCC4)cc3)n2)cc1C#N [Example 211, 5-(2-{[4-(Morpholin-4-yl)phenyl]amino}pyrimidin-4-yl)-2-(propan-2-ylamino)benzonitrile] | < 5 nM | < 10 nM
N#Cc1cc(-c2ccnc(Nc3ccc(N4CCOCC4)cc3)n2)ccc1OC1CCN(CCO)CC1 [Example 49, 2-{[1-(2-Hydroxyethyl)piperidin-4-yl]oxy}-5-(2-{[4-(morpholin-4-yl)phenyl]amino}pyrimidin-4-yl)benzonitrile] | 5 to 50 nM | < 10 nM
CCN1CCN(c2ccc(-c3ccnc(Nc4ccc(N5CCOCC5)cc4)n3)cc2C#N)CC1 [Example 123, 2-(4-Ethylpiperazin-1-yl)-5-(2-{[4-(morpholin-4-yl)phenyl]amino}pyrimidin-4-yl)benzonitrile] | 5 to 50 nM | 10 to 100 nM
COc1cccc(Nc2nccc(-c3cccc(C#N)c3)n2)c1 [compound 389, 3-{2-[(3-Methoxyphenyl)amino]pyrimidin-4-yl}benzonitrile] | 50 to 500 nM | 100 to 500 nM
N#Cc1cc(-c2ccnc(Nc3ccc(NC(=O)Nc4ccncc4)cc3)n2)ccc1OC1CCOCC1 [Example 17, 1-[4-({4-[3-cyano-4-(tetrahydro-2H-pyran-4-yloxy)phenyl]pyrimidin-2-yl}amino)phenyl]-3-pyridin-4-ylurea] | 5 to 50 nM | 10 to 100 nM
COc1ccc(-c2ccnc(Nc3ccc(S(=O)(=O)NCCN)c(OC)c3)n2)cc1C#N [compound 366, N-(2-Aminoethyl)-4-{[4-(3-cyano-4-methoxyphenyl)pyrimidin-2-yl]amino}-2-methoxybenzene-sulfonamide] | 5 to 50 nM | 10 to 100 nM
CC(C)COc1ccc(-c2ccnc(Nc3ccc(CS(=O)(=O)NCCO)cc3)n2)cc1C#N [compound 645, 1-[4-({4-[3-Cyano-4-(2-methylpropoxy)phenyl]pyrimidin-2-yl}amino)phenyl]-N-(2-hydroxyethyl) methanesulfonamide] | < 5 nM | < 10 nM
CN1CCN(c2ccc(Nc3nccc(-c4ccc(OC5CCN(C(=O)CO)C5)c(C#N)c4)n3)cc2)CC1 (centres unmarked) [Example 254, 2-{[1-(hydroxyacetyl)pyrrolidin-3-yl]oxy}-5-(2-{[4-(4-methylpiperazin-1-yl)phenyl]amino}pyrimidin-4-yl)benzonitrile] | 5 to 50 nM | < 10 nM
CC(=O)NCCCOc1ccc(-c2ccnc(Nc3ccc(N4CCOCC4)cc3)n2)cc1C#N [Example 149, N-{3-[2-cyano-4-(2-{[4-(morpholin-4-yl)phenyl]amino}pyrimidin-4-yl)phenoxy]propyl} acetamide] | 5 to 50 nM | 10 to 100 nM
N#Cc1cc(-c2ccnc(Nc3cccc(CNCCN4CCOCC4)c3)n2)ccc1OC1CCOCC1 [compound 569, 5-(2-{[3-({[2-(Morpholin-4-yl)ethyl]amino}methyl)phenyl]amino}pyrimidin-4-yl)-2-(tetrahydro-2H-pyran-4-yloxy)benzonitrile] | 5 to 50 nM | 10 to 100 nM
CC(C)C(=O)Nc1ccc(-c2ccnc(Nc3cccc(CC(=O)N4CCN(C(C)C)CC4)c3)n2)cc1C#N [compound 423, N-(2-cyano-4-{2-[(3-{2-oxo-2-[4-(propan-2-yl)piperazin-1-yl]ethyl}phenyl)amino]pyrimidin-4-yl}phenyl)-2-methylpropanamide] | 5 to 50 nM | < 10 nM
COc1cc(Nc2nccc(-c3ccc(OC4CCOCC4)c(C#N)c3)n2)ccc1OCCOCCNS(=O)(=O)N1CCOCC1 [Example 29, N-(2-{2-[4-({4-[3-cyano-4-(tetrahydro-2H-pyran-4-yloxy)phenyl]pyrimidin-2-yl}amino)-2-methoxyphenoxy]ethoxy}ethyl) morpholine-4-sulfonamide] | < 5 nM | < 10 nM
N#Cc1cccc(-c2ccnc(Nc3ccc(N4CCOCC4)cc3)n2)c1 [compound 322, 3-(2-{[4-(Morpholin-4-yl)phenyl]amino}pyrimidin-4-yl)benzonitrile] | 50 to 500 nM | 10 to 100 nM
N#Cc1cc(-c2ccnc(Nc3ccc(NC(=O)Nc4cccnc4)cc3)n2)ccc1OC1CCOCC1 [Example 14, 1-[4-({4-[3-cyano-4-(tetrahydro-2H-pyran-4-yloxy)phenyl]pyrimidin-2-yl}amino)phenyl]-3-pyridin-3-ylurea] | < 5 nM | < 10 nM
COCC(=O)Nc1cc(Nc2nccc(-c3ccc(OC)c(C#N)c3)n2)cc(OC)c1 [Example 278, N-(3-{[4-(3-Cyano-4-methoxyphenyl)pyrimidin-2-yl]amino}-5-methoxyphenyl)-2-methoxyacetamide] | 5 to 50 nM | 10 to 100 nM
